{"source": "patent US20130197027A1", "about": "“HETEROCYCLYL-AZABICYCLO[3.2.1]OCTANE ANALOGS AS SELECTIVE M1 AGONISTS AND METHODS OF MAKING AND USING SAME” (priority 2010, published 2013)", "key": {"hM1": {"target": "T1, hM1 (Homo sapiens, UniProt P11229)", "T1 construct": "host or cells: CHO-K1", "T1 sequence (P11229 1-460)": "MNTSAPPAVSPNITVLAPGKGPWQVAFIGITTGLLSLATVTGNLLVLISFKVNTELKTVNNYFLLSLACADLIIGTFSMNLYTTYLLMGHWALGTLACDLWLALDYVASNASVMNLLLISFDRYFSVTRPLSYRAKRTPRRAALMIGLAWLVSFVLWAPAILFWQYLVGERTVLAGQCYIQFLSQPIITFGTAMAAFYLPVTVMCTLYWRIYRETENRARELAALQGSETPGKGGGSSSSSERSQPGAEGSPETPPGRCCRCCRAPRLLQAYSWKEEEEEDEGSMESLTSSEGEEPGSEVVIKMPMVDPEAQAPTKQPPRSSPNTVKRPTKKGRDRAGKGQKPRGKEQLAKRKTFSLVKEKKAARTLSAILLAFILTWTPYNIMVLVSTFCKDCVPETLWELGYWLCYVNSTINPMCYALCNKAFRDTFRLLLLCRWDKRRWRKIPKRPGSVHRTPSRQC", "experiment": "Calcium mobilization assay in CHO-K1 cells stably expressing human M1 (high throughput, FDSS 6000)", "assay_type": "cell-based", "description": "(§1) Chinese hamster ovary (CHO-K1) cells stably expressing rat (r) M1 were purchased from the American Type Culture Collection and cultured according to their indicated protocol. CHO cells stably expressing human (h)M2, hM3, and hM5 were described previously (Levey et al., 1991); hM1 and hM4 cDNAs were purchased from Missouri S&T cDNA Resource; rM4 cDNA was provided by T. I. Bonner (National Institutes of Health, Bethesda, Md.). hM1, hM4, and rM4 cDNAs were used to stably transfect CHO-K1 cells purchased from the American Type Culture Collection using Lipofectamine2000. To make stable hM2, hM4 and rM4 cell lines for use in calcium mobilization assays, these cells also were stably transfected with a chimeric G-protein (Gqi5) (provided by B. R. Conklin, University of California, San Francisco) using Lipofectamine 2000. rM1, hM3, and hM5 cells were grown in Ham's F-12 medium containing 10% heat-inactivated fetal bovine serum (FBS), 20 mM HEPES, and 50 μg/mL G418 sulfate. hM2-Gqi5 and hM4-Gqi5 cells were grown in the same medium also containing 500 μg/mL Hygromycin B. Stable rM4-Gqi5 cells were grown in DMEM containing 10% heat-inactivated FBS, 20 mM HEPES, 400 μg/mL G418 sulfate, and 500 μg/mL Hygromycin B. The rat M1 Y381A orthosteric mutant receptor cDNA was generated using the Quik-Change site-directed mutagenesis kit (Stratagene) and verified by sequencing. CHO-K1 cells were stably transfected with this cDNA using Lipofectamine2000 and screened for expression based on calcium mobilization in response to the allosteric M1 agonist N-desmethylclozapine.\nFor high throughput measurement of agonist-evoked increases in intracellular calcium, CHO-K1 cells stably expressing muscarinic receptors were plated in growth medium lacking G418 and hygromycin at 15,000 cells/20 μL/well (hM1, hM2-Gqi5, hM3, hM4-Gqi5, and hM5) in Greiner 384-well black-walled, tissue culture (TC)-treated, clear-bottom plates (VWR). Cells were incubated overnight at 37° C. and 5% CO2. The next day, cells were washed using an ELX 405 (BioTek) with three washes (50 μL) of assay buffer then aspirated to 15 μL. Next, 5 μL of 8 μM Fluo-4/acetoxymethyl ester (Invitrogen, Carlsbad, Calif.) prepared as a 2.3 mM stock in DMSO and mixed in a 1:1 ratio with 10% (w/v) Pluronic F-127 and diluted in assay buffer was added to the wells and the cell plates were incubated for 45 min at 37° C. and 5% CO2. Dye was removed by washing with the ELX 405 (three 50 μL washes of assay buffer) then aspirated to 20 μL. Agonist and compound master plates were formatted in an 11 point CRC format (1:3 dilutions) in 100% DMSO with a starting concentration of 10 mM using the BRAVO liquid handler (Agilent). Test compound CRCs were then transferred to daughter plates ([…]) using the Echo acoustic plate reformatter (Labcyte, Sunnyvale, Calif.) and then diluted into assay buffer (40 μL) to a 2× stock using a Thermo Fisher Combi (Thermo Fisher Scientific, Waltham, Mass.). Calcium flux was measured using the Functional Drug Screening System (FDSS) 6000 (Hamamatsu Corporation, Tokyo, Japan) as an increase in the fluorescent static ratio. 20 μL of Agonist Compounds were applied to cells using the automated system of the FDSS 6000 at 4 s into the 300 s protocol and the data were collected at 1 Hz. Concentration-response curves were generated using a four-parameter logistical equation in XLfit curve fitting software (IDBS, Bridgewater, N.J.) for Excel (Microsoft, Redmond, Wash.) or Prism (GraphPad Software, Inc., San Diego, Calif.)."}, "rM1": {"target": "T2, rM1 (Rattus norvegicus, UniProt P08482)", "T2 construct": "host or cells: CHO-K1", "T2 sequence (P08482 1-460)": "T1 sequence (P11229 1-460) with A5V, T254S, P309S, R320K, A337G, I413V", "experiment": "Calcium mobilization assay in CHO-K1 cells stably expressing rat M1 (low throughput, Flexstation II)", "assay_type": "cell-based", "description": "as §1\nFor low throughput measurement of agonist-evoked increases in intracellular calcium, CHO-K1 cells stably expressing muscarinic receptors were plated in 100 μL of growth medium at 5×10^4 (rM1, hM3, and hM5) or 6×10^4 cells per well (rM1 Y381A, hM2, and rM4) in Costar 96-well black-walled, tissue culture (TC)-treated, clear-bottom plates (Fisher). Cells were incubated overnight at 37° C. and 5% CO2. The next day, medium was removed from the cells, and they were incubated with 50 μL of 2 μM Fluo-4/acetoxymethyl ester (Invitrogen, Carlsbad, Calif.) prepared as a 2.3 mM stock in DMSO and mixed in a 1:1 ratio with 10% (w/v) Pluronic F-127 and diluted in assay buffer [HBSS (Invitrogen) supplemented with 20 mM HEPES and 2.5 mM probenecid, pH 7.4] for 1 h at 37° C. and 5% CO2. Dye was removed and replaced with 50 μL of assay buffer. For calcium fluorescence measurements, CRCs of compounds (50 μl, 2×) were added 19 s after the beginning of data collection via a Flexstation II (Molecular Devices, Sunnyvale, Calif.). Fluorescence imaging continued for a total of 130 s acquisition time using an excitation wavelength of 488 nm, an emission wavelength of 525 nm, and a cutoff wavelength of 515 nm. All of the peaks of the calcium response were normalized to the response to a maximally effective concentration of ACh (ECmax). These normalized peak calcium response values were fit using GraphPad Prism version 4.0 to a four-parameter logistic equation to determine EC50 values."}}, "note": "Where a chain is given by its changes, count along the chain named.", "data": [{"smiles": "CCOC(=O)N1C2CCC1CC(N1CCC[C@@H](NC(=O)c3cccc(OC)c3)C1)C2", "note": "(stereo partly drawn) [Example 4, ethyl 3-((R)-3-(3-methoxybenzamido)piperidin-1-yl)-8-azabicyclo[3.2.1]octane-8-carboxylate]", "values": [{"measurement": "EC50", "setting": "hM1", "result": 250, "unit": "nM"}, {"measurement": "Emax", "setting": "hM1; HM1, read-out: Efficacy (% Max ACh)", "result": 76, "unit": "%"}, {"measurement": "EC50", "setting": "rM1", "result": 52, "unit": "nM"}, {"measurement": "Emax", "setting": "rM1; RM1, read-out: Efficacy (% Max ACh)", "result": 94, "unit": "%"}]}]}
